Results on 2 molecules are retold here after ChEMBL document CHEMBL4346759, “The synthesis of a novel Crizotinib heptamethine cyanine dye conjugate that potentiates the cytostatic and cytotoxic effects of Crizotinib in patient-derived glioblastoma cell lines” (Bioorg Med Chem Lett, 2019).

Assay [1] has as its system GBM. Kind of assay: cells. The settings on record: Homo sapiens, 48 h. Type of assay: functional, cell-based.
Description: Synergistic antiproliferative activity against patient-derived GBM cells assessed as reduction in cell viability after 48 hrs in presence of temozolomide by 5-Ethynyl-2'-deoxyuridine incorporation assay
Assay [2] relates to GBM. Kind of assay: Antiproliferative activity against patient-derived GBM cells assessed as cell viability after 48 hrs by 5-Ethynyl-2'-deoxyuridine incorporation assay. Format: functional, cell-based. Particulars: Homo sapiens.
Assay [3] relates to GBM. Nature of the assay: Selectivity ratio of EC50 for antiproliferative activity against patient-derived GBM cells to EC50 for antiproliferative activity against patient-derived GBM cells in presence of temozolomide. Format: functional, Homo sapiens.
The subject of assay [4] is GBM. Kind of assay: Antiproliferative activity against patient-derived GBM cells assessed as reduction in cell viability after 48 hrs by 5-Ethynyl-2'-deoxyuridine incorporation assay. Format: functional, cell-based. The settings on record: Homo sapiens.
For assay [5], the system named is GBM. Nature of the assay: Cytotoxicity against patient-derived GBM cells assessed as LDH release after 96 hrs by spectrophotometric method. Format: functional, cell-based. The settings on record: Homo sapiens.
In assay [6] the test system is GBM. Nature of the assay: Synergistic antiproliferative activity against patient-derived GBM cells assessed as cell viability after 48 hrs in presence of temozolomide by 5-Ethynyl-2'-deoxyuridine incorporation assay. The settings on record: Homo sapiens. Format: functional, cell-based.
The test system of assay [7] is GBM. Nature of the assay: Selectivity ratio of IC50 for antiproliferative activity against patient-derived GBM cells to IC50 for antiproliferative activity against patient-derived GBM cells in presence of temozolomide. Type of assay: functional, Homo sapiens.

As to `C[C@@H](Oc1cc(-c2cnn(C3CCN(C4=C(/C=C/C5=[N+](C)c6ccccc6C5(C)C)CCC/C4=C\C=C4\N(C)c5ccccc5C4(C)C)CC3)c2)cnc1N)c1c(Cl)ccc(F)c1Cl.[I-]`, the IC50 in the assay on GBM [1] is 0.001 µM; in the assay on GBM [4] it was 0.0047 µM. The concentration giving a half-maximal response (EC50) in the assay with GBM [2] is 0.05 µM; in the assay on GBM [5], 0.0931 µM; in the assay on GBM [6], 0.015 µM. Further, in the assay with GBM [3], the “Ratio EC50” value stood at 3.
As to `C[C@@H](Oc1cc(-c2cnn(C3CCNCC3)c2)cnc1N)c1c(Cl)ccc(F)c1Cl` [CRIZOTINIB], the 50% inhibitory concentration (IC50) with GBM [1] came out at 0.48 µM; in the assay with GBM [4], 0.54 µM. The EC50 in the assay on GBM [2] is 5.6 µM; with GBM [5], 4.3 µM; in the assay on GBM [6], 3.2 µM. The “Ratio EC50” value with GBM [3] is reported as 1.7. Also, in the assay on GBM [7], the “Ratio IC50” value is on record as 1.13.
